What is called melting point is the temperature of the solid-liquid transition.

On to `C=COCCONC(=O)c1ccc(F)cc1Nc1ccc(I)cc1F`, for which the melting point came to 104 °C.
The figure for `Brc1cn2ccnc2c(N2CCOCC2)n1` is 191 °C; for `CCc1[nH]n(C2CCCC2)c2nc(SC)nc(=O)c1-2` it is 200 to 202 °C; for `CC(=O)Nn1c(-c2ccccc2)nc2cc(C(F)(F)F)ccc21` it is 150 to 154 °C.
To `CCC(=O)Oc1ccc(C(=O)CC)cc1F` belongs 104 to 106 °C; to `CCn1ncc2c3noc(-c4cccc(F)c4)c3cnc21`, 182 to 184 °C; to `CCc1nc2c(N)nc(-c3ccncc3)nc2[nH]1`, over 300 °C.
The figure for `CCCCc1nc2c(N)nc3cccnc3c2n1CC(C)C` is 115 to 116 °C.
Molecule `CCNC(=O)n1nc(Oc2ncc(C(F)(F)F)cc2Cl)cc1C(F)(F)F` came in with a melting point of 52 to 54 °C.
The figure for `CC(=O)Nc1cc2c(cc1[N+](=O)[O-])[C@@H](N1CCCC1=O)[C@H](O)C(C)(C)O2` (relative stereo) is 266 to 268 °C.
`COc1cccc(Cc2cnc(NCCSCc3nccs3)[nH]c2=O)c1`: the melting point fell in the range of 104 to 106 °C.
To `COC(=O)c1cc(OCC=C(Cl)Cl)cc(Cl)c1O` belongs 86 °C; to `CC1(C)Oc2ccsc2C(N2CC(=O)NCC2=O)C1O` (configuration not stated), 132 to 133 °C; to `Oc1cccc(CN2CCCCC2c2nc(-c3ccccc3)c(-c3ccccc3)o2)c1` (configuration not stated), 205 to 208 °C.
With `CCOC(=O)c1sc(NC(=O)NN)nc1C`, the melting point lay within 225 to 230 °C.
In turn, `CCCn1c(=O)c2[nH]c(C3CCC(=O)C3)nc2n(CCC)c1=O` (configuration not stated) showed a melting point of 147 to 148 °C.
Regarding `COCCc1nc2c(N)nc(C)c(C)c2n1NC1CCOCC1`, the melting point lay in the range of 110 to 120 °C.
The figure for `Clc1cc(Cl)cc(-c2cc3cc(Cl)cc(Cl)c3[nH]2)c1` is 189 to 190 °C; for `CC(C)NC1=NS(=O)(=O)c2ccc(Oc3ccccc3)cc2N1` it is 250 to 252 °C; for `COc1cc(OC)nc(N(C)C(=O)NS(=O)(=O)c2ccccc2OC(F)(F)F)n1` it is 162 °C.
To `O=C(OC1C(O)COC(Oc2ccc([N+](=O)[O-])cc2)C1OC(=O)c1ccccc1)c1ccccc1` (configuration not stated) belongs 150 to 151 °C; to `NS(=O)(=O)c1ccc(-c2c(-c3ccccc3)noc2COCCS(=O)(=O)CCO)cc1`, 81 °C; to `Cc1ccc(C2CC(C(C)(C)C)=NN2c2ccc(C(=O)O)cc2)cc1` (configuration not stated), 195 °C.
The figure for `CCc1cn(C2CC(OCc3ccccc3)C(CNC(=O)Cc3c(Cl)cccc3Cl)O2)c(=O)[nH]c1=O` (configuration not stated) is 174 to 177 °C; for `Cc1c(C)c2c(c(C)c1OCc1ccccc1)C(c1ccc(N(C)C)cc1)C(C)(C)O2` (configuration not stated) it is 110 to 112 °C; for `O=C1SC(Cc2ccc(OCCn3ccc4ccccc43)cc2)C(=O)N1C(c1ccccc1)(c1ccccc1)c1ccccc1` (configuration not stated) it is 63.5 to 65.9 °C.
`CC(C)(Br)C1CC(=O)OC1OCc1cccc(Oc2ccccc2)c1` (configuration not stated) displayed a melting point of 60 °C.
As for `Cc1cc(O)nc(-c2cccc(-c3ccccc3)n2)n1`, the melting point is 172 °C.
To `COC(=O)CCCOc1ccc(C=O)cc1OC` belongs 69 °C.
Molecule `C#Cc1ccc(C(=O)OC)c(O)c1` showed a melting point of 62 °C.
To `O=Cc1oc(-c2ccccc2)nc1CO` belongs 134 to 135 °C; to `CCOC(=O)NN=C(CC)c1ccncc1`, 147 °C.
In the case of `Cc1ccc2c3c(ccc2n1)OCC(CNCC1CCc2[nH]c4ccc(Cl)cc4c2C1)O3` (configuration not stated), the melting point fell in the range of 104 to 105 °C.
Molecule `CCOc1ccc(C=CC(=O)c2c(OCC)cc(OCC)cc2OC(=O)CC)cc1` returned a melting point of 84.5 °C.
The figure for `CCN1C(=O)N(c2ccc(C#N)c(C(F)(F)F)c2)C(=O)C1(CO)CO` is 155 to 156 °C.
`Cc1cc(C)c(C(=O)c2cccc(-n3ccnc3)c2)c(C)c1`: the melting point was in the range of 134 to 136 °C.
The molecule `COc1ccc(OCc2ccc(=O)n(Cc3ccc(Cl)cc3)c2)cc1` gave a melting point of 114 °C.
To `Fc1c(Cl)cccc1/C=C/c1noc(C(Cl)(Cl)Cl)n1` belongs 37 to 38 °C.
`CS(=O)(=O)n1ccc2cc3c(cc21)C(C#N)C3` (configuration not stated) showed a melting point of 142 to 144 °C.
`CC(C)(C)OC(=O)C(ON1CCNC1=Nc1c(Cl)cccc1Cl)c1ccccc1` (configuration not stated): the melting point was in the range of 88 to 90 °C.
Molecule `COC(=O)c1ccc(I)c2c1Nc1ccccc1C2` yielded a melting point of 119 to 121 °C.
To `CCCCCCCCCCC(C)(C)NC(=O)Nc1cc(OC)cc(C(C)(C)C)c1O` belongs 99 to 102 °C.
With `CCCCCNC(=S)NC(Cc1ccc(OC)cc1)=Nc1ccccc1`, the melting point was 125 to 126 °C.
Molecule `FC(F)(F)c1cccc(-c2cc(C(F)(F)F)n3cnc(-c4ccncc4)c3n2)c1` returned a melting point of 258 °C.
The figure for `CC1=C(C)C(=O)C(C(CCCCCC(=O)O)c2cccnc2)=C(C)C1=O` (configuration not stated) is 126 to 127 °C; for `CSC(=Cc1ccc(N)cc1)S(C)=O` (configuration not stated) it is 165 to 166 °C.
To `COC1(C)CCc2ccc(O)cc2O1` (configuration not stated) belongs 107 to 108 °C; to `O=S(=O)(Nc1cccc2c(Cl)c[nH]c12)c1cccc(Cl)c1`, 180 to 181 °C; to `O=C(NC1=NCCCN1)Nc1c(Cl)cccc1Cl`, 179 to 180 °C.
To `CCCc1nc2cccc(C(=S)OC)c2n1Cc1ccc(-c2ccccc2)c(-c2nc(=O)o[nH]2)c1` belongs 220 to 221 °C; to `Cc1ccc(Oc2ccc(C=O)cc2)c(O)c1`, 46 to 48 °C.
`O=C(O)Cc1cc2c(c(-c3ccccc3)c1)NC(C(F)(F)F)CC2` (configuration not stated) yielded a melting point of 131 to 132 °C.
Molecule `CNc1c(C)cc(N)c([N+](=O)[O-])c1C` displayed a melting point of 57 °C.
Take `COC12CC(CN3CCC(c4c[nH]c5ccccc45)CC3)CN(C)C1Cc1c[nH]c3cccc2c13` (configuration not stated): the melting point lay within 222 to 227 °C.
To `CS(=O)(=O)N1CCN(Cc2ccccc2)CC1` belongs 115 to 116 °C.
The figure for `COc1ccc(C2=NN(Cc3ccccc3)C(=O)[C@H]3CCCC[C@@H]23)cc1OC` (relative stereo) is 86 to 88 °C.
`COCCn1nnnc1C1(c2cccc(C(F)(F)F)c2)C=CC(O)=CC1O` (configuration not stated) came in with a melting point of 115 to 156 °C.
Molecule `CCCCOC(=O)c1c(N)c2cccnc2n(CC)c1=O` returned a melting point of 117 to 120 °C.
Molecule `CC1(C)COc2ccc(C(=O)Nc3ccc(C(=O)O)cc3)cc2OC1` showed a melting point of 249 to 251 °C.
The figure for `CNc1nc(N)c(SC)c(Cl)n1` is 205 °C; for `CCOC(=O)Nc1nc(=O)n(CC2CC2)cc1F` it is 90 to 92 °C.
To `CCOC(=O)C1=Cc2cc(Cl)cc(CO)c2OC1C(F)(F)F` (configuration not stated) belongs 98 to 100 °C; to `O=S1(=O)C(CN2CCCCC2)=Cc2ccc(Cl)cc21`, 154 to 156 °C; to `CCC(=O)Nc1ccccc1C(F)(F)F`, 86 °C.
To `O=C(O)c1cn2c(n1)COc1ccc([N+](=O)[O-])cc1-2` belongs 310 to 312 °C; to `CCOC(=O)C(C)c1ccc(N[C@@H](CCC(N)=O)C(=O)O)cc1` (some centres not stated), 157 to 158 °C.
With `Fc1ccc(OCCCN2CCN(c3ncc4ccccc4n3)CC2)cc1`, the melting point lay in the range of 126 to 128 °C.
To `CC(C)n1c(=O)nc(-c2cc3c(cc2Cl)OCO3)c2cc3c(cc21)OCO3` belongs 147 to 150 °C; to `Cc1c(C)c2c(c(C)c1NC=O)CC(C)(CO)O2` (configuration not stated), 149 to 150 °C; to `CCOc1ccccc1C=C1CCc2c1nc1ccc(C(=O)O)cn1c2=O`, 328 to 332 °C.
The figure for `Nc1nnc(-c2cc(Cl)cc(Cl)c2O)s1` is 268 °C; for `CSc1cc2c(cc1C(F)(F)F)N(C(=O)Nc1cccc(C(=O)NCCN(C(C)C)C(C)C)c1)CC2` it is 97 to 99 °C; for `CCCC1CCC(CC(=O)N[C@@H](Cc2cc(F)cc(F)c2)[C@H](O)CNCc2cccc(CC)c2)CC1=O` (some centres not stated) it is 52 to 54 °C.
On to `O=C(O)Cc1ccc(OCCNC(=O)C2Cc3ccccc3N2S(=O)(=O)c2ccc(-c3ccc(Cl)cc3)c(C(F)(F)F)c2)cc1` (configuration not stated), for which the melting point stood at 92 °C.
To `Cn1cc(CCN2C(=O)c3ccccc3C2=O)c2cc(CC(N)=O)ccc21` belongs 200 to 202 °C; to `COC(=O)c1c(F)cc(OCCNC(=O)C2Cc3ccccc3N2S(=O)(=O)c2ccc(-c3ccc(F)cc3OC)cc2)cc1F` (configuration not stated), 65 to 76 °C.
To `COC(=O)c1ccc(Cc2cccc3ccc(C=O)cc23)c(OC)c1` belongs 103 to 104 °C; to `Cc1ccc(COc2cccnc2NC(=N)Nc2ccc(Cl)cc2)cc1`, 174 to 175 °C; to `CCOC(=O)N(c1ccccc1[N+](=O)[O-])c1cccc(C)c1C`, 71 to 73 °C.
The figure for `CCCCC(=O)NCCc1ccc(S(=O)(=O)NC(=O)c2ccc(C(=O)OC)nc2)cc1` is 178 to 180 °C; for `CCOC(=O)C(=CNc1cccc2c1CCC2)C(=O)OCC` it is 25 to 30 °C.
`NNC(=O)c1cccc2nnsc12` came in with a melting point of 270 to 272 °C.
As to `Cc1n[nH]c2c1CCc1[nH]ncc1-2`, the melting point lay in the range of 250 to 252 °C.
In the case of `NCCc1ccc(CCC(=O)O)cc1`, the melting point lay in the range of 270 to 272 °C.
In turn, `CCOC(=O)c1cnc2n(c1=O)C(C)CCC2=NNc1ccccc1` (configuration not stated) gave a melting point of 138 to 139 °C.
To `Cc1ccccc1NNC1=NCCS1` belongs 126 to 127 °C.
In turn, `CC(=O)Oc1ccc(C2CCC(=O)CC2)cc1` had a melting point of 104 to 106 °C.
To `COc1ccc(-c2ncn(Cc3ccccc3)c2-c2ccc(OC)cc2)cc1` belongs 165 to 167 °C; to `O=C(O)c1nccnc1C(=O)Nc1ccc(Cl)cn1`, 222 °C.
The figure for `CCOC(=O)Cn1c(=S)c2ccccc2n(Cc2ccc(Cl)cc2Cl)c1=O` is 138 to 139 °C; for `CCCCCCCCCCCCCCC(=O)C(=O)NCCCC(=O)OC(C)(C)C` it is 61 to 62 °C.
On to `CC(=O)NCC1CN(c2ncccc2Cl)C1`, for which the melting point lay in the range of 109 to 111 °C.

The values are drawn from a melting point compilation (Tetko et al.; mined from patent text by program, amines drawn as free bases though some values may be those of a salt).
